Assay results published in ChEMBL document CHEMBL1135635, “Kappa-opioid receptor model in a phospholipid bilayer: molecular dynamics simulation” (J Med Chem, 2002).

Molecular target: Kappa-type opioid receptor (Cavia porcellus, UniProt P41144)
Test: Inhibition of [3H]U-69593 binding towards Opioid receptor kappa 1 in guinea pig brain homogenates.
Type: tissue-based

Sequence of Kappa-type opioid receptor (P41144 whole entry): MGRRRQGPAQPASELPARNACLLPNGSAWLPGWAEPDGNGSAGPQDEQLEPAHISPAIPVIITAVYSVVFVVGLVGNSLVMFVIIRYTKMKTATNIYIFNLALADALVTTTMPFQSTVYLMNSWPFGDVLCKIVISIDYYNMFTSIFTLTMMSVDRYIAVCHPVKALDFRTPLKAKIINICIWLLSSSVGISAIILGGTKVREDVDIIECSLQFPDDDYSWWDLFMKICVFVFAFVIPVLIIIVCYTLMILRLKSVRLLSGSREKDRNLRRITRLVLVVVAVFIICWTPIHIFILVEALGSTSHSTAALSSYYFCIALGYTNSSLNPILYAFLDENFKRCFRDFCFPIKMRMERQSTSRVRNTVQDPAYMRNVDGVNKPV

| SMILES | Ki |
| --- | --- |
| C[C@H]1C2Cc3ccc(O)cc3[C@@]1(C)CCN2CC1C[C@@]1(C(=O)Nc1ccccc1)c1ccccc1 (some centres not stated) | 2.35 µM |
| CC(=O)OC[C@@]1(c2ccccc2)CC1CN1CC[C@]2(C)c3cc(O)ccc3CC1[C@@H]2C (some centres not stated) | 0.228 µM |
